According to patent publication US20070293459A1, “Method for Inhibiting Cellular Na+-K+ ATPase Activity” (JASON LIFE TECH INC. LTD., priority 2006, published 2007):

What was measured:
[1] = test system: cerebral infarct after ischemia-reperfusion; experiment: Focal cerebral ischemia-reperfusion (CCA/MCA occlusion) infarct test in gerbils; format: in vivo, gerbil; conditions: for cell infarct volume vs control: FIG. 7; for cell infarct size vs control: FIG. 8
[2] = test system: Na^+—K^+ ATPase; experiment: Na+-K+ ATPase activity of rat brain cortex plasma membrane (Pi liberated from ATP hydrolysis); format: biochemical; conditions: for Na+-K+ ATPase activity (free Pi), MLB compared with ouabain: FIG. 2, various MLB or ouabain concentrations
Description: (§1) First, Male Sprague-Dawley (NarII: SD) rats (3-month-old) were purchased from National Laboratory Animal Center (Nankang, Taipei) and raised under specific pathogen-free conditions. Animals were provided with rat chow (Rodent Laboratory Chow 5001, Purina, Mo.) and tap water throughout the studies. The rats received humane care in accordance with the guidelines of a guidebook for the care and use of laboratory animals. The animals were sacrificed by decapitation, and the brain and heart organs of the rats were removed immediately after complete exsanguination.
Next, the plasma membrane was isolated from the rat brain and heart at 4° C. The brain and heart homogenate were prepared respectively with homogenized plasma membrane in 10-20 volumes of […] sucrose solution containing 5.0 mM 4-(2-hydroxyethyl)-1-piperazineethanesulfonic acid (HEPES) and 1.0 mM EDTA, pH7.5. Then, the brain or heart homogenate was centrifuged at 1000×g for 10 min, and kept the resultant supernatant for further centrifuge at 17000×g for 30 min to obtain a crude plasma membrane fraction.
Then, the fraction was washed and suspended twice in 0.32 M sucrose HEPES-buffer, which was subjected to a discontinuous sucrose density gradient consisting of successive layers of […], and centrifuged at 63000×g for 1 hour. The plasma membrane was collected at the interface between […] sucrose to be further suspended in 0.32 M sucrose solution for enzyme assays within 2 hours.
Na^+—K^+ ATPase activity was determined by measuring the amount of inorganic phosphate (Pi) liberated from ATP hydrolysis.
First, commercial Na^+—K^+ ATPase from porcine cerebral cortex (Sigma, 0.3 units/mg) or a purified plasma membrane fraction incorporated into a reaction mixture of 1 ml containing 3 mM ATP, 5 mM MgCl2, 80 mM NaCl, 20 mM KCl, and 40 mM Tris-HCl, pH7.4, was prepared. The enzymatic reaction was terminated 15 min after Na^+—K^+ ATPase incorporation by adding 200 μl of 30% (WN) trichloroacetic acid.
After centrifugation at 6000 rpm for 15 min, supernatant of 500 μl measured the inorganic phosphate using spectrophotometric methods. Enzyme activity was expressed as μmol Pi liberated from ATP by 1 mg of Na^+—K^+ ATPase during 1 hour. Protein content was quantified using a Bradford protein assay kit (Sigma). For the observation of inhibitory effects on Na^+—K^+ ATPase activity, ouabain or MLB of various concentrations was incubated with commercial Na^+—K^+ ATPase or the purified plasma membrane fraction at 37° C. for 10 min prior to incorporation into the reaction mixture.

[3] = test system: cerebral hypoxia caused by sodium nitrite; experiment: Rat survival test after sodium nitrite (cerebral hypoxia); format: in vivo; conditions: FIG. 6, sodium nitrite 225 mg/kg
Method: Sodium nitrite will trigger the oxyhemoglobin converts into methemoglobin to cause the hypoxia and cell infract.
3-4 week old rats (about 20˜22 g) were randomly divided into three sample groups and one control group, and each group has 5 rats. […] After feeding for 7 days, one hour later of the final feeding, each rat was injected with sodium nitrite (225 mg/kg). Then count time on the spot to record the survival time of rats.

[4] = test system: Na^+—K^+ ATPase; experiment: Na+-K+ ATPase activity of rat myocardium (cardiac) cell membrane (Pi liberated from ATP hydrolysis); format: biochemical; conditions: FIG. 5, various MLB concentrations
Description: as §1
Next, the plasma membrane was isolated from the rat brain and heart at 4° C. The brain and heart homogenate were prepared respectively with homogenized plasma membrane in 10-20 volumes of […] sucrose solution containing 5.0 mM 4-(2-hydroxyethyl)-1-piperazineethanesulfonic acid (HEPES) and 1.0 mM EDTA, pH7.5. […]
Na^+—K^+ ATPase activity was determined by measuring the amount of inorganic phosphate (Pi) liberated from ATP hydrolysis. […]
After centrifugation at 6000 rpm for 15 min, supernatant of 500 μl measured the inorganic phosphate using spectrophotometric methods. Enzyme activity was expressed as μmol Pi liberated from ATP by 1 mg of Na^+—K^+ ATPase during 1 hour. Protein content was quantified using a Bradford protein assay kit (Sigma). […]

O=C(/C=C/c1ccc(O)c2c1[C@H](C(=O)O[C@H](Cc1ccc(O)c(O)c1)C(=O)[O-])[C@@H](c1ccc(O)c(O)c1)O2)O[C@H](Cc1ccc(O)c(O)c1)C(=O)[O-].[Mg+2] [MLB, magnesium lithospermate B] was tested, and the “cell infarct volume vs control” value ([1]; MLB 1.5 mg/Kg intraperitoneally 30 min before reperfusion) was “effective repression of cell infarct”, the “cell infarct volume vs control” value ([1]; MLB 3 mg/Kg intraperitoneally 30 min before reperfusion) was “significant (p<0.01) difference from the control group” and the “cell infarct size vs control” value ([1]; MLB 0.3 mg/Kg forced oral fed 30 min after reperfusion) was “effective repression of cell infarct”. For the same compound, the “cell infarct size vs control” value ([1]; MLB 3 mg/Kg forced oral fed 30 min after reperfusion) was “significant (p<0.01) difference from the control group”, the “Na+-K+ ATPase activity (inorganic phosphate liberated from ATP hydrolysis) with increasing concentration” value ([2]; FIG. 1, rat brain cortex, various MLB concentrations, 37° C. 10 min preincubation) was “the measured free inorganic phosphate (Pi) decreases with increased MLB concentration” and the “Na+-K+ ATPase activity (free Pi), MLB compared with ouabain” value ([2]; rat brain cortex) was “the inhibitory behavior of MLB is consistent with the ouabain”. The “Na+-K+ ATPase activity (free Pi) of brain cortex cell membrane” value ([2]; FIG. 4, rat brain cortex cell membrane, various MLB concentrations) was “the MLB is able to inhibit the Na^+—K^+ ATPase activity of the cortex cell membrane”, the “survival rate vs control after sodium nitrite” value (“survival rate vs control” below) ([3]; MLB 3 mg/Kg for 7 days) was “significant (p<0.05) increase (two folds)” and the “survival rate vs control” value ([3]; MLB 9 mg/Kg for 7 days) was “significant (p<0.05) different from the control group”. The “survival rate vs control” value ([3]; MLB 18 mg/Kg for 7 days) was “significant (p<0.05) different from the control group” and the “Na+-K+ ATPase activity (free Pi) of cardiac cell membrane” value [4] was “MLB is able to inhibit the Na^+—K^+ ATPase activity of cardiac cell membranes”.

With C[C@@H]1O[C@@H](O[C@H]2C[C@@H](O)[C@]3(CO)[C@H]4[C@H](O)C[C@]5(C)[C@@H](C6=CC(=O)OC6)CC[C@]5(O)[C@@H]4CC[C@]3(O)C2)[C@H](O)[C@H](O)[C@H]1O [ouabain, reference compound] the “Na+-K+ ATPase activity (free Pi), MLB compared with ouabain” value ([2]; rat brain cortex) was “the amount of free inorganic phosphate (Pi) is dependent on the raised inhibitor (MLB or ouabain) dosage”.
